Assay [1] concerns the target T1, Orexin receptor type 2 (Homo sapiens, UniProt O43614).
T1 sequence (O43614 whole entry): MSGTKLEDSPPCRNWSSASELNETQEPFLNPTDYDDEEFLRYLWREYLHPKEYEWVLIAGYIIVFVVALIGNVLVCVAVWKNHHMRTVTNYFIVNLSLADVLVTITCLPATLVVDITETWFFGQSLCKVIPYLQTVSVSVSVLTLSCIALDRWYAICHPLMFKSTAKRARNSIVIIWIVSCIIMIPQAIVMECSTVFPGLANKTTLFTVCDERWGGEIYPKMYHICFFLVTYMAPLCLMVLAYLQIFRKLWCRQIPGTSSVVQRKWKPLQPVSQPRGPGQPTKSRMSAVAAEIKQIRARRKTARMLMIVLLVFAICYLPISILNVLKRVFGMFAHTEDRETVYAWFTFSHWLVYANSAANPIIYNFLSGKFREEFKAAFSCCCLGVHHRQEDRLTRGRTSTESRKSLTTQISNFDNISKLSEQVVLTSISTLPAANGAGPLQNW
The experiment in a line: Effective agonist concentration to the human Orexin receptor type 2 was determined using the Xlfit program. It is filed as functional.

In assay [2] the target is T2, Orexin/Hypocretin receptor type 1 (Homo sapiens, UniProt O43613).
T2 sequence (O43613 whole entry): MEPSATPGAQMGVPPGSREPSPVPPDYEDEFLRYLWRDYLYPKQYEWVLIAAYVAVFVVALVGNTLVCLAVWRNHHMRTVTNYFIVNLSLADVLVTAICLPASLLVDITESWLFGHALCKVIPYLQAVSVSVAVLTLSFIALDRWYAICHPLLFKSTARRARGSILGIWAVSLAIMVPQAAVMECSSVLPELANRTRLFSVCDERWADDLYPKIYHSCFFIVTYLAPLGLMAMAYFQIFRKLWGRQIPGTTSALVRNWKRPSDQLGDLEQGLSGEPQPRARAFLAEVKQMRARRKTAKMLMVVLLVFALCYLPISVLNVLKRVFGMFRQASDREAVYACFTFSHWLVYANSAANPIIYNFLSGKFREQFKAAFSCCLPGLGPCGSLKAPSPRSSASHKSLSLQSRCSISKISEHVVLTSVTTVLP
The experiment in a line: Effective agonist concentration to human orexin receptor type 1 determined using the Xlfit program. It counts as functional.

Assay [3] is described as follows: Ratio of orexin-1 receptor to orexin-2 receptor in human.

Residues, ends and D or L forms follow the SMILES beside them. Bounds are passed on as bounds.

Take `CC[C@H](C)[C@H](NC(=O)CNC(=O)[C@H](C)NC(=O)[C@H](C)NC(=O)[C@H](Cc1c[nH]cn1)NC(=O)[C@H](CC(N)=O)NC(=O)CNC(=O)[C@H](CO)NC(=O)[C@H](C)NC(=O)[C@H](CCC(N)=O)NC(=O)[C@H](CC(C)C)NC(=O)[C@H](C)NC(=O)[C@H](CCCN=C(N)N)NC(=O)[C@H](CCC(N)=O)NC(=O)[C@H](CC(C)C)NC(=O)[C@H](CCCN=C(N)N)NC(=O)CNC(=O)[C@H](CCC(N)=O)NC(=O)[C@H](CC(C)C)NC(=O)CN)C(=O)N[C@@H](CC(C)C)C(=O)N[C@H](C(=O)N[C@@H](CCSC)C(=O)O)[C@@H](C)O` (H-GLQGRLQRALQASGNHAAGILTM-OH): the EC50 stood at 2.28 µM in assay [1] and 5.89 µM in assay [2]. In assay [3], the Ratio amounted to 2.6.
Taken in the same sequence, the figures for `CC[C@H](C)[C@H](NC(=O)CNC(=O)[C@H](C)NC(=O)[C@H](C)NC(=O)[C@H](Cc1c[nH]cn1)NC(=O)[C@H](CC(N)=O)NC(=O)CNC(=O)[C@H](CO)NC(=O)[C@H](C)NC(=O)[C@H](CCC(N)=O)NC(=O)[C@@H]1CCCN1C(=O)[C@H](CC(C)C)NC(=O)[C@H](CCCN=C(N)N)NC(=O)[C@H](CCC(N)=O)NC(=O)[C@H](CC(C)C)NC(=O)[C@H](CCCN=C(N)N)NC(=O)CNC(=O)[C@H](CCC(N)=O)NC(=O)[C@H](CC(C)C)NC(=O)CN)C(=O)N[C@@H](CC(C)C)C(=O)N[C@H](C(=O)N[C@@H](CCSC)C(=O)O)[C@@H](C)O` (H-GLQGRLQRLPQASGNHAAGILTM-OH) were 20.1 µM, more than 1000 µM and more than 50.
`CC[C@H](C)[C@H](NC(=O)[C@@H]1CCCN1C(=O)[C@H](C)NC(=O)[C@H](C)NC(=O)[C@H](Cc1c[nH]cn1)NC(=O)[C@H](CC(N)=O)NC(=O)CNC(=O)[C@H](CO)NC(=O)[C@H](C)NC(=O)[C@H](CCC(N)=O)NC(=O)[C@H](CC(C)C)NC(=O)[C@H](CC(C)C)NC(=O)[C@H](CCCN=C(N)N)NC(=O)[C@H](CCC(N)=O)NC(=O)[C@H](CC(C)C)NC(=O)[C@H](CCCN=C(N)N)NC(=O)CNC(=O)[C@H](CCC(N)=O)NC(=O)[C@H](CC(C)C)NC(=O)CN)C(=O)N[C@@H](CC(C)C)C(=O)N[C@H](C(=O)N[C@@H](CCSC)C(=O)O)[C@@H](C)O` (H-GLQGRLQRLLQASGNHAAPILTM-OH): the EC50 in assay [1] is 9.43 µM; in assay [2] it was more than 1000 µM. In addition, in assay [3], the Ratio was more than 105.
On to `CC[C@H](C)[C@H](NC(=O)CNC(=O)[C@H](C)NC(=O)[C@H](C)NC(=O)[C@H](Cc1c[nH]cn1)NC(=O)[C@H](CC(N)=O)NC(=O)CNC(=O)[C@H](CO)NC(=O)[C@H](C)NC(=O)[C@H](CCC(N)=O)NC(=O)[C@H](CC(C)C)NC(=O)[C@H](CC(C)C)NC(=O)[C@H](CCCN=C(N)N)NC(=O)[C@H](CCC(N)=O)NC(=O)[C@H](CC(C)C)NC(=O)[C@H](CCCN=C(N)N)NC(=O)CNC(=O)[C@H](CCC(N)=O)NC(=O)[C@H](CC(C)C)NC(=O)[C@@H]1CCCN1)C(=O)N[C@@H](CC(C)C)C(=O)N[C@H](C(=O)N[C@@H](CCSC)C(=O)O)[C@@H](C)O` (H-PLQGRLQRLLQASGNHAAGILTM-OH), for which the EC50 in assay [1] turned out to be 0.49 µM; in assay [2], 8.28 µM. Besides, the Ratio in assay [3] came out at 16.9.
In the same order, the values of `CC[C@H](C)[C@H](NC(=O)CNC(=O)[C@H](C)NC(=O)[C@H](C)NC(=O)[C@H](Cc1c[nH]cn1)NC(=O)[C@H](CC(N)=O)NC(=O)CNC(=O)[C@H](CO)NC(=O)[C@H](C)NC(=O)[C@@H]1CCCN1C(=O)[C@H](CC(C)C)NC(=O)[C@H](CC(C)C)NC(=O)[C@H](CCCN=C(N)N)NC(=O)[C@H](CCC(N)=O)NC(=O)[C@H](CC(C)C)NC(=O)[C@H](CCCN=C(N)N)NC(=O)CNC(=O)[C@H](CCC(N)=O)NC(=O)[C@H](CC(C)C)NC(=O)CN)C(=O)N[C@@H](CC(C)C)C(=O)N[C@H](C(=O)N[C@@H](CCSC)C(=O)O)[C@@H](C)O` (H-GLQGRLQRLLPASGNHAAGILTM-OH) are 2.48 µM, 9.49 µM and 3.8.
Take `CC[C@H](C)[C@H](NC(=O)CNC(=O)[C@H](C)NC(=O)[C@H](C)NC(=O)[C@H](Cc1c[nH]cn1)NC(=O)[C@H](CC(N)=O)NC(=O)CNC(=O)[C@H](CO)NC(=O)[C@H](C)NC(=O)[C@H](CCC(N)=O)NC(=O)[C@H](CC(C)C)NC(=O)[C@H](CC(C)C)NC(=O)[C@H](CCCN=C(N)N)NC(=O)[C@H](CCC(N)=O)NC(=O)[C@H](CC(C)C)NC(=O)[C@H](CCCN=C(N)N)NC(=O)CNC(=O)[C@H](CCC(N)=O)NC(=O)[C@H](CC(C)C)NC(=O)CN)C(=O)N[C@@H](CC(C)C)C(=O)N[C@@H](C)C(=O)N[C@@H](CCSC)C(=O)O` (H-GLQGRLQRLLQASGNHAAGILAM-OH): the values for the EC50 in assay [1] and in assay [2] were 0.76 µM and more than 1000 µM, respectively. Also, in assay [3], the Ratio was more than 1350.
For `CC[C@H](C)[C@H](NC(=O)CNC(=O)[C@H](C)NC(=O)[C@H](C)NC(=O)[C@H](Cc1c[nH]cn1)NC(=O)[C@H](CC(N)=O)NC(=O)CNC(=O)[C@H](CO)NC(=O)[C@H](C)NC(=O)[C@H](CCC(N)=O)NC(=O)[C@H](CC(C)C)NC(=O)[C@H](CC(C)C)NC(=O)[C@H](CCCN=C(N)N)NC(=O)[C@H](CCC(N)=O)NC(=O)[C@H](CC(C)C)NC(=O)[C@H](CCCN=C(N)N)NC(=O)CNC(=O)[C@H](CCC(N)=O)NC(=O)[C@H](C)NC(=O)CN)C(=O)N[C@@H](CC(C)C)C(=O)N[C@H](C(=O)N[C@@H](CCSC)C(=O)O)[C@@H](C)O` (H-GAQGRLQRLLQASGNHAAGILTM-OH), it took 0.83 µM to reach a half-maximal effect in assay [1] (EC50). Also, the Ratio in assay [3] came to 8.9.
Compound `CC[C@H](C)[C@H](NC(=O)CNC(=O)[C@H](C)NC(=O)[C@H](C)NC(=O)[C@H](Cc1c[nH]cn1)NC(=O)[C@H](CC(N)=O)NC(=O)CNC(=O)[C@H](CO)NC(=O)[C@H](C)NC(=O)[C@H](CCC(N)=O)NC(=O)[C@H](CC(C)C)NC(=O)[C@H](CC(C)C)NC(=O)[C@H](CCCN=C(N)N)NC(=O)[C@H](CCC(N)=O)NC(=O)[C@H](CC(C)C)NC(=O)[C@H](CCCN=C(N)N)NC(=O)[C@@H]1CCCN1C(=O)[C@H](CCC(N)=O)NC(=O)[C@H](CC(C)C)NC(=O)CN)C(=O)N[C@@H](CC(C)C)C(=O)N[C@H](C(=O)N[C@@H](CCSC)C(=O)O)[C@@H](C)O` (H-GLQPRLQRLLQASGNHAAGILTM-OH) returned an EC50 in assay [1] of 0.19 µM. For the same compound, the Ratio in assay [3] came to 23.5.
Taken in the same sequence, the figures for `CC[C@H](C)[C@H](NC(=O)CNC(=O)[C@H](C)NC(=O)[C@H](C)NC(=O)[C@H](Cc1c[nH]cn1)NC(=O)[C@H](CC(N)=O)NC(=O)CNC(=O)[C@H](C)NC(=O)CNC(=O)[C@H](Cc1c[nH]cn1)NC(=O)[C@H](CC(C)C)NC(=O)[C@H](CC(C)C)NC(=O)[C@H](CCC(=O)O)NC(=O)[C@H](Cc1ccc(O)cc1)NC(=O)[C@H](CC(C)C)NC(=O)[C@H](CCCN=C(N)N)NC(=O)[C@H](CS)NC(=O)[C@H](CO)NC(=O)[C@H](CS)NC(=O)[C@@H](NC(=O)[C@H](CCCCN)NC(=O)[C@H](CCC(N)=O)NC(=O)[C@H](CCCN=C(N)N)NC(=O)[C@H](CS)NC(=O)[C@H](CS)NC(=O)[C@H](CC(=O)O)NC(=O)[C@@H]1CCCN1)[C@@H](C)O)C(=O)N[C@@H](CC(C)C)C(=O)N[C@H](C(=O)N[C@@H](CC(C)C)C(=O)O)[C@@H](C)O` (H-PDCCRQKTCSCRLYELLHGAGNHAAGILTL-OH) were 0.4 µM and 1.6.
